Data from PubChem BioAssay (NCI).
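Method: 48-hour compound exposure of cells in 96-well plates, five concentrations, linear interpolation of endpoints. GI50 = concentration required for 50% inhibition of growth. The concentration for full growth arrest is given as TGI.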

Assays:
Assay in all cases: DTP human tumour cell line panel, 48 h
786-0 renal = test system: 786-0 renal
A498 renal = test system: A498 renal
A549 NSCLC = test system: A549 NSCLC
ACHN renal = test system: ACHN renal
CAKI-1 renal = test system: CAKI-1 renal
CCRF-CEM leukemia = test system: CCRF-CEM leukemia
COLO 205 colon = test system: COLO 205 colon
DLD-1 colon = test system: DLD-1 colon
DMS 114 small cell lung = test system: DMS 114 small cell lung
DMS 273 small cell lung = test system: DMS 273 small cell lung
EKVX NSCLC = test system: EKVX NSCLC
HCC-2998 colon = test system: HCC-2998 colon
HCT-116 colon = test system: HCT-116 colon
HCT-15 colon = test system: HCT-15 colon
HL-60(TB) leukemia = test system: HL-60(TB) leukemia
HOP-62 NSCLC = test system: HOP-62 NSCLC
HOP-92 NSCLC = test system: HOP-92 NSCLC
HT29 colon = test system: HT29 colon
IGROV1 ovarian = test system: IGROV1 ovarian
K-562 leukemia = test system: K-562 leukemia
KM12 colon = test system: KM12 colon
KM20L2 colon = test system: KM20L2 colon
LOX IMVI melanoma = test system: LOX IMVI melanoma
LXFL 529 NSCLC = test system: LXFL 529 NSCLC
M14 melanoma = test system: M14 melanoma
M19-MEL melanoma = test system: M19-MEL melanoma
MALME-3M melanoma = test system: MALME-3M melanoma
MOLT-4 leukemia = test system: MOLT-4 leukemia
NCI-H226 lung = test system: NCI-H226 lung
NCI-H23 lung = test system: NCI-H23 lung
NCI-H460 lung = test system: NCI-H460 lung
NCI-H522 lung = test system: NCI-H522 lung
OVCAR-3 ovarian = test system: OVCAR-3 ovarian
OVCAR-4 ovarian = test system: OVCAR-4 ovarian
OVCAR-5 ovarian = test system: OVCAR-5 ovarian
OVCAR-8 ovarian = test system: OVCAR-8 ovarian
RPMI-8226 leukemia = test system: RPMI-8226 leukemia
SF-268 CNS = test system: SF-268 CNS
SF-295 CNS = test system: SF-295 CNS
SF-539 CNS = test system: SF-539 CNS
SK-MEL-2 melanoma = test system: SK-MEL-2 melanoma
SK-MEL-28 melanoma = test system: SK-MEL-28 melanoma
SK-MEL-5 melanoma = test system: SK-MEL-5 melanoma
SK-OV-3 ovarian = test system: SK-OV-3 ovarian
SN12C renal = test system: SN12C renal
SNB-19 CNS = test system: SNB-19 CNS
SNB-75 CNS = test system: SNB-75 CNS
SW-620 colon = test system: SW-620 colon
TK-10 renal = test system: TK-10 renal
U251 CNS = test system: U251 CNS
UACC-257 melanoma = test system: UACC-257 melanoma
UACC-62 melanoma = test system: UACC-62 melanoma
UO-31 renal = test system: UO-31 renal
RXF 393 renal = test system: RXF 393 renal
SR leukemia = test system: SR leukemia

SMILES: [Cl-].[Nd+3].[O-]/N=C(\c1ccccc1)c1ccccn1.[O-]/N=C(\c1ccccc1)c1ccccn1.[O-]/N=C(\c1ccccc1)c1ccccn1
- GI50 (786-0 renal): 31 µM
- TGI (786-0 renal): 82.2 µM
- GI50 (A498 renal): 24.5 µM
- TGI (A498 renal): > 100 µM
- GI50 (A549 NSCLC): 33.7 µM
- TGI (A549 NSCLC): > 100 µM
- GI50 (ACHN renal): 37.8 µM
- TGI (ACHN renal): > 100 µM
- GI50 (CAKI-1 renal): 30.6 µM
- TGI (CAKI-1 renal): > 100 µM
- GI50 (CCRF-CEM leukemia): 16.4 µM
- TGI (CCRF-CEM leukemia): 95.3 µM
- GI50 (COLO 205 colon): 31.2 µM
- TGI (COLO 205 colon): > 100 µM
- GI50 (DLD-1 colon): 39.6 µM
- TGI (DLD-1 colon): > 100 µM
- GI50 (DMS 114 small cell lung): 24.6 µM
- TGI (DMS 114 small cell lung): 79 µM
- GI50 (DMS 273 small cell lung): 26.9 µM
- TGI (DMS 273 small cell lung): 97 µM
- GI50 (EKVX NSCLC): 31.1 µM
- TGI (EKVX NSCLC): > 100 µM
- GI50 (HCC-2998 colon): 36.3 µM
- TGI (HCC-2998 colon): > 100 µM
- GI50 (HCT-116 colon): 37.6 µM
- TGI (HCT-116 colon): > 100 µM
- GI50 (HCT-15 colon): 31.7 µM
- TGI (HCT-15 colon): > 100 µM
- GI50 (HL-60(TB) leukemia): 16.5 µM
- TGI (HL-60(TB) leukemia): 53.6 µM
- GI50 (HOP-62 NSCLC): 24.9 µM
- TGI (HOP-62 NSCLC): > 100 µM
- GI50 (HOP-92 NSCLC): 25 µM
- TGI (HOP-92 NSCLC): 98.3 µM
- GI50 (HT29 colon): 54.2 µM
- TGI (HT29 colon): > 100 µM
- GI50 (IGROV1 ovarian): 30.6 µM
- TGI (IGROV1 ovarian): > 100 µM
- GI50 (K-562 leukemia): 34.4 µM
- TGI (K-562 leukemia): > 100 µM
- GI50 (KM12 colon): 38.8 µM
- TGI (KM12 colon): > 100 µM
- GI50 (KM20L2 colon): 39.1 µM
- TGI (KM20L2 colon): > 100 µM
- GI50 (LOX IMVI melanoma): 22.6 µM
- TGI (LOX IMVI melanoma): 58 µM
- GI50 (LXFL 529 NSCLC): 40.4 µM
- TGI (LXFL 529 NSCLC): > 100 µM
- GI50 (M14 melanoma): 23 µM
- TGI (M14 melanoma): 45.8 µM
- GI50 (M19-MEL melanoma): 25 µM
- TGI (M19-MEL melanoma): 69.8 µM
- GI50 (MALME-3M melanoma): 30 µM
- TGI (MALME-3M melanoma): 96.9 µM
- GI50 (MOLT-4 leukemia): 23.8 µM
- TGI (MOLT-4 leukemia): 90.2 µM
- GI50 (NCI-H226 lung): 13.3 µM
- TGI (NCI-H226 lung): 45.6 µM
- GI50 (NCI-H23 lung): 30.3 µM
- TGI (NCI-H23 lung): 82.7 µM
- GI50 (NCI-H460 lung): 29.4 µM
- TGI (NCI-H460 lung): > 100 µM
- GI50 (NCI-H522 lung): 23 µM
- TGI (NCI-H522 lung): 80.1 µM
- GI50 (OVCAR-3 ovarian): 17.5 µM
- TGI (OVCAR-3 ovarian): > 100 µM
- GI50 (OVCAR-4 ovarian): 45.1 µM
- TGI (OVCAR-4 ovarian): > 100 µM
- GI50 (OVCAR-5 ovarian): 31.2 µM
- TGI (OVCAR-5 ovarian): > 100 µM
- GI50 (OVCAR-8 ovarian): 34.1 µM
- TGI (OVCAR-8 ovarian): > 100 µM
- GI50 (RPMI-8226 leukemia): 39.2 µM
- TGI (RPMI-8226 leukemia): > 100 µM
- GI50 (SF-268 CNS): 24.8 µM
- TGI (SF-268 CNS): 85.1 µM
- GI50 (SF-295 CNS): 22.3 µM
- TGI (SF-295 CNS): > 100 µM
- GI50 (SF-539 CNS): 23.8 µM
- TGI (SF-539 CNS): 62.2 µM
- GI50 (SK-MEL-2 melanoma): 28 µM
- TGI (SK-MEL-2 melanoma): 66.4 µM
- GI50 (SK-MEL-28 melanoma): 27.3 µM
- TGI (SK-MEL-28 melanoma): 85.1 µM
- GI50 (SK-MEL-5 melanoma): 22.6 µM
- TGI (SK-MEL-5 melanoma): 55.4 µM
- GI50 (SK-OV-3 ovarian): 37.1 µM
- TGI (SK-OV-3 ovarian): > 100 µM
- GI50 (SN12C renal): 37.2 µM
- TGI (SN12C renal): > 100 µM
- GI50 (SNB-19 CNS): 35.9 µM
- TGI (SNB-19 CNS): > 100 µM
- GI50 (SNB-75 CNS): 3.78 µM
- TGI (SNB-75 CNS): 17.2 µM
- GI50 (SW-620 colon): 41.1 µM
- TGI (SW-620 colon): > 100 µM
- GI50 (TK-10 renal): 37.5 µM
- TGI (TK-10 renal): > 100 µM
- GI50 (U251 CNS): 38.9 µM
- TGI (U251 CNS): > 100 µM
- GI50 (UACC-257 melanoma): 33.6 µM
- TGI (UACC-257 melanoma): 99.3 µM
- GI50 (UACC-62 melanoma): 28.7 µM
- TGI (UACC-62 melanoma): > 100 µM
- GI50 (UO-31 renal): 19.8 µM
- TGI (UO-31 renal): 56.7 µM

SMILES: O=C(N/N=C/c1cc(Cl)cc(Cl)c1[O-])c1ccccc1O.O=C(N/N=C/c1cc(Cl)cc(Cl)c1[O-])c1ccccc1O.[Cl-].[Fe+3]
- GI50 (A549 NSCLC): 10.2 µM
- TGI (A549 NSCLC): 63.8 µM
- TGI (ACHN renal): 38.5 µM
- TGI (CAKI-1 renal): > 100 µM
- GI50 (COLO 205 colon): 19.4 µM
- TGI (COLO 205 colon): 44.4 µM
- GI50 (EKVX NSCLC): 29.3 µM
- TGI (EKVX NSCLC): 88.3 µM
- TGI (HCC-2998 colon): 23.5 µM
- GI50 (HCT-116 colon): 5.78 µM
- TGI (HCT-116 colon): 18.9 µM
- TGI (HCT-15 colon): 18.7 µM
- TGI (HL-60(TB) leukemia): 5.22 µM
- TGI (HOP-62 NSCLC): 36.2 µM
- GI50 (HOP-92 NSCLC): 1.95 µM
- TGI (HOP-92 NSCLC): 7.18 µM
- TGI (HT29 colon): 34.8 µM
- TGI (IGROV1 ovarian): 48.4 µM
- GI50 (KM12 colon): 12.6 µM
- TGI (KM12 colon): 37.9 µM
- GI50 (KM20L2 colon): 10.7 µM
- TGI (KM20L2 colon): 24 µM
- TGI (LOX IMVI melanoma): 30.9 µM
- TGI (M14 melanoma): 35.3 µM
- TGI (NCI-H226 lung): 20.5 µM
- GI50 (NCI-H23 lung): 7.73 µM
- TGI (NCI-H23 lung): 25.7 µM
- TGI (NCI-H460 lung): 36 µM
- TGI (NCI-H522 lung): 31.5 µM
- TGI (OVCAR-3 ovarian): 27 µM
- TGI (OVCAR-4 ovarian): 26.6 µM
- TGI (OVCAR-5 ovarian): 26 µM
- TGI (OVCAR-8 ovarian): 25.9 µM
- TGI (RXF 393 renal): 23.7 µM
- TGI (SF-268 CNS): 69.8 µM
- TGI (SF-295 CNS): 22.4 µM
- GI50 (SF-539 CNS): 10.5 µM
- TGI (SF-539 CNS): 27.9 µM
- GI50 (SK-MEL-2 melanoma): 17.1 µM
- TGI (SK-MEL-2 melanoma): 37.1 µM
- TGI (SK-OV-3 ovarian): 29.2 µM
- TGI (SNB-19 CNS): 22.7 µM
- TGI (SNB-75 CNS): 60.4 µM
- TGI (SR leukemia): 25.3 µM
- TGI (SW-620 colon): 29.9 µM
- TGI (TK-10 renal): > 100 µM
- TGI (UACC-257 melanoma): 51.2 µM
- TGI (UACC-62 melanoma): 33.6 µM
- TGI (UO-31 renal): 31.7 µM
